Laboratory results as given in patent publication US12240870B2, “Sequencing method for CAR T cell therapy” (Purdue Research Foundation, priority 2018, dated 2025).
“Also recorded” adds a separate entry of the source.

Legend:
[1] = system: THP1-FRβ xenografts; test: THP1-FRβ AML intravenous xenograft, E2 CAR-T cells plus EC17; assay type: in vivo, NSG mice
[2] = system: unsorted E2-CAR-T cells; test: 3H-EC17 uptake by E2-CAR-T cells; set-up: species or system human; conditions: unsorted E2-CAR-T cells (~24% EGFRt+, ~95:5 CD8/CD4), 2 hour at room temperature; read-out: Kd of 3H-EC17 binding to E2-CAR-T cells
Experimental: FIG. 10, Panel A: Kd values of ^3H-EC17 uptake by FR+ target cells after a 2 hour incubation at 37° C. (calculated from the numbers of molecules bound per cell). Panel B: Kd value of ^3H^−EC17 uptake by E2-CAR-T cells (˜24% EGFRt+, ˜95:5 CD8/CD4 ratio) after a 2 hour incubation at room temperate (calculated from total cell-associated radioactivity, DPM).
The EC17 has already been tested in the clinic for immunotherapy and optical imaging purposes. To directly quantify its bispecific binding affinities, ^3H-EC17 was synthesized and radioligand binding assays were carried out on KB and CHO-β cell lines representing FRα+ and FRβ+ target cells, respectively, and on unsorted EGFRt CAR-T cells representing the effector cells.

How did the non-liver macrometastases ([1]; EC17 M/Th/M dose escalation at a slow pace per cycle) turn out when `Nc1nc2ncc(CNc3ccc(C(=O)N[C@@H](CCC(=O)NCCNC(=S)Nc4ccc(-c5c6ccc(=O)cc-6oc6cc(O)ccc56)c(C(=O)O)c4)C(=O)O)cc3)nc2c(=O)[nH]1` [EC17, FA-(γ)-ethylenediamine-FITC] was run?
The non-liver macrometastases was “failed to control the non-liver macrometastases”.

What about the body weight loss ([1]; ~6 million E2 CAR-T + EC17 M/Th/M dose escalation, 6-day break (Cohort 5)) of the same compound?
The body weight loss was “little body weight loss during the first two cycles; also recorded: very mild body weight loss”.

What about the Kd [2] of the same compound?
Its Kd is roughly 130 nM.
